Test results: patent publication US11395847B2, “Acylated GLP-1/GLP-2 dual agonists” (Zealand Pharma A/S, priority 2016, dated 2022)
Like-named read-outs stand apart in the source and are kept apart here. *1 amine or outer side, *2 acyl side, *3 side chain or, on linkers, in order; H or OH if unused. Where a SMILES comes first, the peptide text is derived from it. Side-chain parts run from the residue outwards. [ ]: non-standard residue; d: D form. The star is where a group is joined. C20 diacid = O=C(O)CCCCCCCCCCCCCCCCCCC(=O)*; γGlu = O=C(O)[C@H](CCC(=O)[*:2])N[*:1]; AEEA = NCCOCCOCC(=O)O; Aib = CC(C)(N)C(=O)O

Key:
[1] = Solubility assessment (turbidity absorbance at 325 nm); type: physicochemical
Method: A stock solution of the test peptide (2 mg/ml; determined from the weighed amount of peptide) in demineralized water adjusted to pH 2.5 with HCl was prepared, and aliquots were diluted 1:1 in 100 mM acetate buffer (pH 4.0 and pH 5.0), 100 mM histidine buffer (pH 6.0 and pH 7.0) and 100 mM phosphate buffer (pH 6.0, pH 7.0 and pH 7.5), respectively, and loaded in a standard flat-bottom, non-sterile 96-well UV Microplate. The absorbance of samples (single samples, n=1) at 280 and 325 nm was measured in an absorbance-based plate reader, which was preheated to ambient temperature (typically 25° C.).

[2] = Chemical stability (RP-HPLC normalized purity after incubation at 40° C.); type: physicochemical; settings: 14-day incubation, 0.2 mg/ml, normalized purity (area-%); for pH 7 normalized stability: pH 7, 40° C.
Method: Samples of each test peptide were dissolved in MILLIQ™ water, and the pH of the solution was adjusted to pH 6, 7, 7.5 or 9 using either HCl or NaOH. The final peptide concentration was 0.2 mg/ml. Samples were placed in glass vials and incubated at 40° C. The samples were analyzed by RP-HPLC on a C18 column with gradient elution using an acetonitrile/TFA/water eluent system. The area-percentage (area-%) of the main peak after incubation time T=t (relative to time T=0) was determined by UV spectroscopy at 220 nm.
The purity was first determined as follows: Purity(area-%)=(area of main peak/total area of all peaks)×100.
The purity was then normalized between time points by setting purity at time 0 (T=0) to 100 for each pH value for a given peptide, as follows: Normalized area-% at time t(T=t)=[area-%(T=t)/area-%(T=0)]×100.
The chemical stability assessment results after 14-day incubation (in the form of normalized purity values) are summarized in Table 4.

[3] = 100 mM acetate buffer pH 4.0, ambient temperature, read-out: Solubility Acetate buffer pH 4
[4] = 100 mM acetate buffer pH 5.0, ambient temperature, read-out: Solubility Acetate buffer pH 5
[5] = 100 mM histidine buffer pH 6.0, ambient temperature, read-out: Solubility Histidine buffer pH 6
[6] = 100 mM histidine buffer pH 7.0, ambient temperature, read-out: Solubility Histidine buffer pH 7
[7] = 100 mM phosphate buffer pH 6.0, ambient temperature, read-out: Solubility Phosphate buffer pH 6
[8] = 100 mM phosphate buffer pH 7.0, ambient temperature, read-out: Solubility Phosphate buffer pH 7
[9] = 100 mM phosphate buffer pH 7.5, ambient temperature, read-out: Solubility Phosphate buffer pH 7.5

solubility [1, 3] [µg/mL]	solubility [1, 4] [µg/mL]	solubility [1, 5] [µg/mL]	solubility [1, 6] [µg/mL]	solubility [1, 7] [µg/mL]	solubility [1, 8] [µg/mL]	solubility [1, 9] [µg/mL]	pH 6 normalized stability ([2]; pH 6, 40° C.)	pH 7 normalized stability [2]	Compound
								A (>90% normalised stability)	CCCCCCCCCCCCCCCC(=O)NCCC(=O)NCCCC[C@H](NC(=O)[C@H](CC(=O)O)NC(=O)[C@H](CC(C)C)NC(=O)[C@@H](NC(=O)[C@@H](NC(=O)[C@H](C)NC(=O)[C@H](CC(C)C)NC(=O)[C@H](CCC(=O)O)NC(=O)[C@H](CO)NC(=O)[C@@H](NC(=O)[C@H](Cc1ccccc1)NC(=O)[C@H](CO)NC(=O)CNC(=O)[C@H](CCC(=O)O)NC(=O)C(C)(C)NC(=O)[C@@H](N)Cc1c[nH]cn1)[C@@H](C)O)[C@@H](C)O)[C@@H](C)CC)C(=O)N[C@@H](CCC(N)=O)C(=O)N[C@@H](C)C(=O)N[C@@H](C)C(=O)N[C@@H](CCCNC(=N)N)C(=O)N[C@@H](CC(=O)O)C(=O)N[C@@H](Cc1ccccc1)C(=O)N[C@H](C(=O)N[C@@H](C)C(=O)N[C@@H](Cc1c[nH]c2ccccc12)C(=O)N[C@@H](CC(C)C)C(=O)N[C@@H](CCC(N)=O)C(=O)N[C@@H](CCC(N)=O)C(=O)N[C@@H](Cc1c[nH]cn1)C(=O)N[C@@H](CCCCN)C(=O)N[C@H](C(=O)N[C@H](C(=O)N[C@@H](CC(=O)O)C(=O)O)[C@@H](C)O)[C@@H](C)CC)[C@@H](C)CC [Compound 32] (HELM PEPTIDE1{H.[Aib].E.G.S.F.T.S.E.L.A.T.I.L.D.K.Q.A.A.R.D.F.I.A.W.L.Q.Q.H.K.I.T.D}|PEPTIDE2{[CCCCCCCCCCCCCCCC(=O)[*:2]].[bAla]}$PEPTIDE1,PEPTIDE2,16:R3-2:R2$$$V2.0)
								A (>90% normalised stability)	CC[C@H](C)[C@H](NC(=O)[C@H](Cc1ccccc1)NC(=O)[C@H](CC(=O)O)NC(=O)[C@H](CCCCNC(=O)COCCOCCNC(=O)COCCOCCNC(=O)[C@H](CCCCN)NC(=O)[C@H](CCC(=O)O)NC(=O)[C@H](CCCCN)NC(=O)CC[C@H](NC(=O)CCCCCCCCCCCCCCCCCCC(=O)O)C(=O)O)NC(=O)[C@H](C)NC(=O)[C@H](C)NC(=O)[C@H](CCC(N)=O)NC(=O)[C@H](CCC(=O)O)NC(=O)[C@H](CC(=O)O)NC(=O)[C@H](CC(C)C)NC(=O)[C@@H](NC(=O)[C@@H](NC(=O)[C@H](C)NC(=O)[C@H](CC(C)C)NC(=O)[C@H](CCC(=O)O)NC(=O)[C@H](CO)NC(=O)[C@@H](NC(=O)[C@H](Cc1ccccc1)NC(=O)[C@@H](NC(=O)CNC(=O)[C@H](CCC(=O)O)NC(=O)C(C)(C)NC(=O)[C@@H](N)Cc1c[nH]cn1)[C@@H](C)O)[C@@H](C)O)[C@@H](C)O)[C@@H](C)CC)C(=O)N[C@@H](C)C(=O)N[C@@H](Cc1c[nH]c2ccccc12)C(=O)N[C@@H](CC(C)C)C(=O)N[C@H](C(=O)N[C@@H](CCC(=O)O)C(=O)N[C@@H](Cc1c[nH]cn1)C(=O)N[C@@H](CCCCN)C(=O)N[C@H](C(=O)N[C@H](C(=O)N[C@@H](CC(=O)O)C(=O)O)[C@@H](C)O)[C@@H](C)CC)[C@@H](C)CC [Compound 67] (H-H[Aib]EGTFTSELATILDEQAAK([AEEA-AEEA-Lys-Glu-Lys-γGlu-C20 diacid])DFIAWLIEHKITD-OH)

Continued, compound first:

Compound	solubility [1, 3] [µg/mL]	solubility [1, 4] [µg/mL]	solubility [1, 5] [µg/mL]	solubility [1, 6] [µg/mL]	solubility [1, 7] [µg/mL]	solubility [1, 8] [µg/mL]	solubility [1, 9] [µg/mL]	pH 6 normalized stability ([2]; pH 6, 40° C.)	pH 7 normalized stability [2]
CC[C@H](C)[C@H](NC(=O)[C@H](Cc1ccccc1)NC(=O)[C@H](CC(=O)O)NC(=O)[C@H](CCCNC(=N)N)NC(=O)[C@H](C)NC(=O)[C@H](C)NC(=O)[C@H](CCC(N)=O)NC(=O)[C@H](CCCCNC(=O)CC[C@H](NC(=O)CCCCCCCCCCCCCCCCC(=O)O)C(=O)O)NC(=O)[C@H](CC(=O)O)NC(=O)[C@H](CC(C)C)NC(=O)[C@@H](NC(=O)[C@@H](NC(=O)[C@H](C)NC(=O)[C@H](CC(C)C)NC(=O)[C@H](CCC(=O)O)NC(=O)[C@H](CO)NC(=O)[C@@H](NC(=O)[C@H](Cc1ccccc1)NC(=O)[C@@H](NC(=O)CNC(=O)[C@H](CCC(=O)O)NC(=O)C(C)(C)NC(=O)[C@@H](N)Cc1c[nH]cn1)[C@@H](C)O)[C@@H](C)O)[C@@H](C)O)[C@@H](C)CC)C(=O)N[C@@H](C)C(=O)N[C@@H](Cc1c[nH]c2ccccc12)C(=O)N[C@@H](CC(C)C)C(=O)N[C@H](C(=O)N[C@@H](CCC(N)=O)C(=O)N[C@@H](Cc1c[nH]cn1)C(=O)N[C@@H](CCCCN)C(=O)N[C@H](C(=O)N[C@H](C(=O)N[C@@H](CC(=O)O)C(=O)O)[C@@H](C)O)[C@@H](C)CC)[C@@H](C)CC [Compound 19] (HELM PEPTIDE1{H.[Aib].E.G.T.F.T.S.E.L.A.T.I.L.D.K.Q.A.A.R.D.F.I.A.W.L.I.Q.H.K.I.T.D}|PEPTIDE2{[O=C(O)CCCCCCCCCCCCCCCCC(=O)[*:2]].[gGlu]}$PEPTIDE1,PEPTIDE2,16:R3-2:R2$$$V2.0)	< 1000	< 1000	≥ 1000	≥ 1000	≥ 1000	≥ 1000	≥ 1000	A (>90% normalised stability)	A (>90% normalised stability)
CC[C@H](C)[C@H](NC(=O)[C@H](Cc1ccccc1)NC(=O)[C@H](CC(=O)O)NC(=O)[C@H](CCCNC(=N)N)NC(=O)[C@H](C)NC(=O)[C@H](C)NC(=O)[C@H](CCC(N)=O)NC(=O)[C@H](CCCCNC(=O)CC[C@H](NC(=O)CCCCCCCCCCCCCCCCC(=O)O)C(=O)O)NC(=O)[C@H](CC(=O)O)NC(=O)[C@H](CC(C)C)NC(=O)[C@@H](NC(=O)[C@@H](NC(=O)[C@H](C)NC(=O)[C@H](CC(C)C)NC(=O)[C@H](CCC(=O)O)NC(=O)[C@H](CO)NC(=O)[C@@H](NC(=O)[C@H](Cc1ccccc1)NC(=O)[C@H](CO)NC(=O)CNC(=O)[C@H](CCC(=O)O)NC(=O)C(C)(C)NC(=O)[C@@H](N)Cc1c[nH]cn1)[C@@H](C)O)[C@@H](C)O)[C@@H](C)CC)C(=O)N[C@@H](C)C(=O)N[C@@H](Cc1c[nH]c2ccccc12)C(=O)N[C@@H](CC(C)C)C(=O)N[C@H](C(=O)N[C@@H](Cc1c[nH]cn1)C(=O)N[C@@H](Cc1c[nH]cn1)C(=O)N[C@@H](CCCCN)C(=O)N[C@H](C(=O)N[C@H](C(=O)N[C@@H](CC(=O)O)C(=O)O)[C@@H](C)O)[C@@H](C)CC)[C@@H](C)CC [Compound 26] (HELM PEPTIDE1{H.[Aib].E.G.S.F.T.S.E.L.A.T.I.L.D.K.Q.A.A.R.D.F.I.A.W.L.I.H.H.K.I.T.D}|PEPTIDE2{[O=C(O)CCCCCCCCCCCCCCCCC(=O)[*:2]].[gGlu]}$PEPTIDE1,PEPTIDE2,16:R3-2:R2$$$V2.0)	≥ 1000	< 1000	< 1000	≥ 1000	< 1000	≥ 1000	≥ 1000		A (>90% normalised stability)
CC[C@H](C)[C@H](NC(=O)[C@H](Cc1ccccc1)NC(=O)[C@H](CC(=O)O)NC(=O)[C@H](CCCNC(=N)N)NC(=O)[C@H](C)NC(=O)[C@H](C)NC(=O)[C@H](CCC(N)=O)NC(=O)[C@H](CCCCNC(=O)CC[C@H](NC(=O)CCCCCCCCCCCCCCCCC(=O)O)C(=O)O)NC(=O)[C@H](CC(=O)O)NC(=O)[C@H](CC(C)C)NC(=O)[C@@H](NC(=O)[C@@H](NC(=O)[C@H](C)NC(=O)[C@H](CC(C)C)NC(=O)[C@H](CCC(=O)O)NC(=O)[C@H](CO)NC(=O)[C@@H](NC(=O)[C@H](Cc1ccccc1)NC(=O)[C@H](CO)NC(=O)CNC(=O)[C@H](CCC(=O)O)NC(=O)C(C)(C)NC(=O)[C@@H](N)Cc1c[nH]cn1)[C@@H](C)O)[C@@H](C)O)[C@@H](C)CC)C(=O)N[C@@H](C)C(=O)N[C@@H](Cc1c[nH]c2ccccc12)C(=O)N[C@@H](CC(C)C)C(=O)N[C@H](C(=O)N[C@@H](CC(C)C)C(=O)N[C@@H](Cc1c[nH]cn1)C(=O)N[C@@H](CCCCN)C(=O)N[C@H](C(=O)N[C@H](C(=O)N[C@@H](CC(=O)O)C(=O)O)[C@@H](C)O)[C@@H](C)CC)[C@@H](C)CC [Compound 28] (HELM PEPTIDE1{H.[Aib].E.G.S.F.T.S.E.L.A.T.I.L.D.K.Q.A.A.R.D.F.I.A.W.L.I.L.H.K.I.T.D}|PEPTIDE2{[O=C(O)CCCCCCCCCCCCCCCCC(=O)[*:2]].[gGlu]}$PEPTIDE1,PEPTIDE2,16:R3-2:R2$$$V2.0)	< 1000	< 1000	≥ 1000	≥ 1000	≥ 1000	≥ 1000	≥ 1000		A (>90% normalised stability)
